Results on 1 compound are retold here after patent publication US20250302714A1, “ORAL HEALTH AGENT AND COMPOSITION FOR USE IN DOMESTIC ANIMALS” (priority 2022, published 2025).

The assay has as its system canine oral microbiome. Kind of assay: Controlled clinical study in beagles: oral swab sequencing of the canine oral microbiome. In kind it is in vivo, dog (beagles). To be noted: 14 beagles, arginine powder mixture (1.5% L-arginine) twice daily after meals, 28 days post dental cleaning, oral swabs, global sequencing. The protocol: In vitro and in vivo studies were required to assert the activity of arginine in oral care of domestic animals. […] Controlled clinical studies were performed in 14 beagles fed an arginine powder mixture (Table 2) twice daily after meals. Dental assessments were performed using photographic inspection after the application of a biofilm disclosing agent. Animals were fed the mixture for 28 days prior to final assessment. Oral swab samples were collected at days 0, 7, 14 and 28 and subjected to global sequencing studies.
In this study bacterial populations were clustered and plotted in separate figures. Data was obtained after 28 days of treatment post dental cleaning.

On to `N=C(N)NCCC[C@H](N)C(=O)O` [arginine, L-arginine], for which the “relative abundance of oral bacterial populations, treated vs control animals” value is recorded as “shift towards healthy oral bacterial populations”.
